{"source": "patent US20050026133A1", "about": "“Cryopreservation medium for primate embryo stem cells and cryopreservation method” (ASAHI TECHNO GLASS CORPORATION, priority 2002, published 2005)", "key": {"[1]": {"test_system": "Cynomolgus monkey ES cells", "test": "Post-thaw ES cell colony formation, proliferation to subculturable stage, staining with Vector Red alkaline phosphatase substrate", "format": "cell-based", "procedure": "After completion of the culture, the cells in each Petri dish were fixed with paraformaldehyde and ethanol and stained with Vector Red alkaline phosphatase substrate (Vector Labs).\nAfter completion of the culture, the cells in each Petri dish were fixed with paraformaldehyde and ethanol and stained with vector Red alkaline phosphatase substrate (Vector Labs). […] Similar staining of the feeder cells gave no stained colonies (FIG. 11).\n(§1) After 2, 4, 6 and 8 days, ES cell proliferation was assessed by alkaline phosphatase assay as described in Example 1. After 8 days of culture, the cells on each Petri dish was dissociated by tripsinization and counted. Colonies of 1 mm or larger formed on the Petri dishes for the respective concentrations were visually counted."}, "[2]": {"test_system": "Cynomolgus monkey ES cells", "test": "Cell count per Petri dish of post-thaw ES cell culture after trypsinization", "format": "cell-based", "procedure": "After 2, 4, 6 and 7 days, ES cell proliferation was assessed by alkaline phosphatase assay as described in Example 1. After 7 days of culture, the cells on each Petri dish was dissociated by tripsinization and counted.\nas §1\nAfter 2, 4, 6 and 8 days, ES cell proliferation was assessed by alkaline phosphatase assay as described in Example 1. After 8 days of culture, the cells on each Petri dish was dissociated by tripsinization and counted.\nAfter 2, 4 and 6 days of culture, ES cell proliferation was assessed by alkaline phosphatase assay as described in Example 1. After 6 days of culture, the cells on each Petri dish was dissociated by tripsinization and counted."}, "[3]": {"test_system": "Cynomolgus monkey ES cells", "test": "Alkaline phosphatase activity (ES cell marker) of post-thaw ES cells in culture, fluorometry with 4-methylumbelliferyl phosphate", "format": "cell-based", "settings": "for alkaline phosphatase activity of post-thaw ES cells (successful cryopreservation): 8 days of culture", "procedure": "Cynomolgus monkey ES cells were subcultured for 33 passages and dissociated into cell suspension from three 90-mm Petri dishes, and the cell suspension was centrifuged at 1,000 rpm for 5 minutes. The supernatant was removed to obtain a cell precipitate. The cell precipitate was resuspended in 1 ml of a cryopreservation medium containing 20% (V/V) [=22% (W/V)] of DMSO, 40% (V/V) of a serum replacement containing albumin, insulin and transferrin (Knockout Serum Replacement; Invitrogen) [hereinafter referred to as serum replacement (A)] and 40% (V/V) of DMEM:Ham F12=1:1 medium [hereinafter referred to as medium (A)] supplemented with 3 g/l of glucose, 0.5 g/l of CaCl2 0.15 g/l of MgSO4. The cell suspension was transferred to a serum tube, refrigerated to −80° C. at a rate of about 1° C./min in Mr. Frosty is (Nalgen) and then stored in a liquid nitrogen container for about 6 days. The cells were thawed, plated in 60-mm Petri dishes in duplicate and cultured in the medium described in Suemori et al. (2001 Dev. Dyn. Oct; 222(2):273-9). ES cell proliferation was investigated by following the time course of the activity of alkaline phosphatase, which is a marker of ES cells. After 3, 5 and 7 days, the medium was removed from the dishes by aspiration, and the cells were washed with 1 ml of 30 mM Hepes buffer containing 0.1 mg/l of CaCl2 and 0.1 mg/l of MgSO4(7H2O) and treated with 1 ml of 0.2 mM 4-methylumbelliferyl phosphate solution in the same buffer in an incubator at 37° C. for 1 hour. 0.8 ml portions of the reaction mixture were transferred to a 24-well microplate and analyzed by fluorometry at Ex355/Em460. Fluorescence per 1 ml was calculated and plotted. As a control, the alkaline phosphatase activity of the same feeder cells as used during subcultures of ES cells was measured."}, "chicken lung cells": {"test_system": "chicken lung cells", "settings": "DMSO or glycerin concentrations from 15 to 20%; cited from earlier work"}, "[4]": {"test_system": "Cynomolgus monkey ES cells", "test": "Differentiation potency of cryopreserved ES cells: teratoma formation after intraperitoneal injection into SCID mice", "format": "in vivo", "settings": "Example 3; cells cryopreserved in 20% (V/V) [=22% (W/V)] DMSO, 40% serum replacement (A), 40% medium (A); 10 passages after thawing; 5×10^6 cells i.p. in SCID mice, about 6 weeks", "procedure": "Cynomolgus monkey ES cells subcultured for 35 passages were harvested from three 90-mm Petri dishes and treated by a method similar to that employed in Example 1 to give a cell precipitate. The cell precipitate was resuspended in 1 ml of a cryopreservation medium consisting of 20% (V/V) [=22% (W/V)] of DMSO, 40% (V/V) of serum replacement (A), 40% (V/V) of medium (A). The cell suspension was transferred to a serum tube, refrigerated to −80° C. at a rate of about 1° C./min in Mr. Frosty (Nalgen) and stored in a liquid nitrogen container for 5 day. The cells were thawed and continuously subcultured in duplicate in 35-mm Petri dishes in the medium described in Suemori et al. (2001 Dev. Dyn. Oct;222(2);273-9). Differentiation potency was assessed after 10 passages. The cells were dissociated from the Petri dishes, and 5×10^6 cells were suspended in 0.5 ml of a phosphate buffer and intraperitoneally injected into SCID mice. The mice were fed for about 6 weeks, and teratomas were isolated from the abdomen."}, "[5]": {"test_system": "embryonic stem cells and embryonic carcinoma cells", "settings": "DMSO concentration of above 1% (W/V); cited from earlier work"}}, "data": [{"compound": "C[S+](C)[O-]", "note": "[DMSO, dimethyl sulfoxide]", "values": [{"measurement": "time after thawing until the cells could be subcultured", "setting": "[1]; Example 1, 20% (V/V) DMSO, 40% serum replacement (A), 40% medium (A)", "result": 1, "unit": "week"}, {"measurement": "colonies stained with Vector Red alkaline phosphatase substrate", "setting": "[1]; Example 1, 20% (V/V) DMSO, after completion of the culture", "result": "numerous successfully stained colonies"}, {"measurement": "ES cell proliferation and differentiated colonies after post-thaw passage", "setting": "[1]; Example 1, 20% (V/V) DMSO, three-fold dilution followed by 3 days of subculture", "result": "successful proliferation of ES cells was observed without formation of differentiated colonies"}, {"measurement": "ES cell proliferation and differentiated colonies after 7 days of prolonged culture", "setting": "[1]; Example 2, 20% (V/V) DMSO", "result": "successful proliferation of ES cells was observed without formation of differentiated colonies"}, {"measurement": "time after thawing until the cultures were able to be subcultured", "setting": "[1]; Example 2, 20% (V/V) DMSO", "result": 5, "unit": "days"}, {"measurement": "colonies stained with Vector Red alkaline phosphatase substrate", "setting": "[1]; Example 2, 20% (V/V) DMSO, 7 days after thawing", "result": "numerous successfully stained colonies"}, {"measurement": "ES cell proliferation after 7 days of prolonged culture", "setting": "[1]; Example 2 comparative, 10% (V/V) DMSO", "result": "proliferation was recognized to a certain degree, though far below that of the cells in the illustrative experiment"}, {"measurement": "reaching the subculturable stage after thawing", "setting": "[1]; Example 2 comparative, 10% (V/V) DMSO, 5 days", "result": "could not reach the stage at which they were able to be subcultured after 5 days"}, {"measurement": "colonies stained with Vector Red alkaline phosphatase substrate", "setting": "[1]; Example 2 comparative, 10% (V/V) DMSO, 7 days after thawing", "result": "a few successfully stained colonies were observed"}, {"measurement": "cell count per Petri dish in the 7 day culture versus comparative experiment (10% or 50% (V/V) DMSO)", "setting": "[2]; Example 4, DMSO 15% (V/V) [=16.5% (W/V)] and 20% (V/V) [=22% (W/V)]", "result": "remarkably greater"}, {"measurement": "cell count per Petri dish after 8 days of culture versus comparative experiment (10% (V/V) DMSO)", "setting": "[2]; Example 6, 20% (V/V) DMSO, storage cell densities 1.0, 2.0, 4.0×10^7 cells/2 ml", "result": "greater than that in the comparative experiment"}, {"measurement": "cryopreservation success by cell count per Petri dish after 7 days of culture", "setting": "[2]; Example 7, 20% (V/V) DMSO with 10, 40 or 80% (V/V) serum replacement (A) or fetal bovine serum", "result": "Successful cryopreservation was confirmed at any supplement concentrations"}, {"measurement": "cell count per Petri dish after 6 days of culture, 20% (V/V) DMSO relative to 10% (V/V) DMSO", "setting": "[2]; Example 8, 20% serum replacement (A), 2.2×10^7 cells/2 ml, stored 1 day", "result": 6, "unit": "times"}, {"measurement": "alkaline phosphatase activity of post-thaw ES cells versus feeder cells", "setting": "[3]; Example 1, cryopreservation medium with 20% (V/V) [=22% (W/V)] DMSO, 40% serum replacement (A), 40% medium (A), stored about 6 days, culture 3, 5, 7 days", "result": "significantly higher alkaline phosphatase activity than the feeder cells"}, {"measurement": "alkaline phosphatase activity of post-thaw ES cells versus feeder cells", "setting": "[3]; Example 2, 20% (V/V) [=22% (W/V)] DMSO, 40% serum replacement (A), 40% medium (A), stored 1 day, culture 2, 4, 6, 7 days", "result": "significantly higher alkaline phosphatase activity than the feeder cells"}, {"measurement": "alkaline phosphatase activity of post-thaw ES cells versus feeder cells", "setting": "[3]; Example 2 comparative, 10% (V/V) DMSO, 45% serum replacement (A), 45% medium (A), after 7 days", "result": "slightly exceeded the feeder cells in alkaline phosphatase activity"}, {"measurement": "time course of alkaline phosphatase activity of post-thaw ES cells", "setting": "[3]; Example 4, DMSO 12, 15, 20 or 30% (V/V) [13.2, 16.5, 22, 33% (W/V)], equal serum replacement (A) and medium (A), 2, 4, 6, 7 days", "result": "time-dependent increase in alkaline phosphatase activity"}, {"measurement": "rate of increase of alkaline phosphatase activity versus comparative experiment (10% (V/V) DMSO)", "setting": "[3]; Example 6, 20% (V/V) DMSO, storage cell densities 1.0, 2.0, 4.0×10^7 cells/2 ml, stored 18 days", "result": "alkaline phosphatase activity increased faster at any cell densities than in the comparative experiment"}, {"measurement": "alkaline phosphatase activity of post-thaw ES cells", "setting": "[3]; Example 7, 20% (V/V) DMSO with 10, 40 or 80% (V/V) serum replacement (A) or fetal bovine serum, 2, 4, 6, 7 days", "result": "alkaline phosphatase activity increased"}, {"measurement": "rate of increase of alkaline phosphatase activity versus comparative experiment (10% (V/V) DMSO)", "setting": "[3]; Example 8, 20% (V/V) [=22% (W/V)] DMSO, 20% serum replacement (A), 60% medium (A), 2, 4, 6 days", "result": "increased significantly faster"}, {"measurement": "viability of chicken lung cells", "setting": "chicken lung cells", "result": "did not give high viabilities"}, {"measurement": "tissues found in teratomas (retention of pluripotency)", "setting": "[4]", "result": "formation of nerves, muscles and cartilage"}, {"measurement": "time in culture at which cells begin to differentiate", "setting": "[5]", "result": 4, "unit": "days"}]}, {"compound": "OCC(O)CO", "note": "[glycerin]", "values": [{"measurement": "formation of ES cell colonies (1 mm or larger, visually counted)", "setting": "[1]; Example 5, glycerin 10% (V/V) [=12.6% (W/V)] or above, 8 day culture", "result": "formation of ES cell colonies was confirmed"}, {"measurement": "cell count per Petri dish in the 8 day culture", "setting": "[2]; Example 5, glycerin 10% (V/V) [=12.6% (W/V)] and 20% (V/V) [=25.2% (W/V)]", "result": "remarkably great"}, {"measurement": "alkaline phosphatase activity of post-thaw ES cells (successful cryopreservation)", "setting": "[3]; Example 5, glycerin 10, 20 or 30% (V/V) [12.6, 25.2, 37.8% (W/V)], 20% serum replacement (A), balance medium (A)", "result": "increase in alkaline phosphatase activity after 8 days of culture"}, {"measurement": "alkaline phosphatase activity of post-thaw ES cells (successful cryopreservation)", "setting": "[3]; Example 5 comparative, glycerin 5% (V/V) [=6.3% (W/V)]", "result": "all the glycerin concentrations but 5% (V/V)"}, {"measurement": "viability of chicken lung cells", "setting": "chicken lung cells", "result": "did not give high viabilities"}]}]}
